Measured values published in ChEMBL document CHEMBL1909046, “DrugMatrix in vitro pharmacology data”.
pIC50, pKi: −log10 of the molar value.

Experiments:
[1] = DRUGMATRIX: GABAA, Muscimol, Central radioligand binding (ligand: [3H] Muscimol); format: cell membranes, Rattus norvegicus, Wistar, Brain, Membrane; details: Not Active = under 50% inhibition at 10 µM
[2] = DRUGMATRIX: Glutamate, NMDA, Phencyclidine radioligand binding (ligand: [3H] TCP); format: cell membranes, Rattus norvegicus, Wistar, Cerebral cortex, Membrane; details: Not Active = under 50% inhibition at 10 µM
[3] = DRUGMATRIX: Leukotriene, BLT (LTB4) radioligand binding (ligand: [3H]LTB4); format: cell membranes, Membrane; details: u-937; Not Active = under 50% inhibition at 10 µM
Melanocortin receptor 3 = Melanocortin receptor 3 (Homo sapiens, UniProt P41968); format: cell membranes, Membrane; details: hek293; further: in other assays of this panel Not Active means under 50% inhibition at 10 µM
[4] = target: Delta-type opioid receptor (Homo sapiens, UniProt P41143); format: cell membranes, HEK293, Membrane; details: hek293; further: in other assays of this panel Not Active means under 50% inhibition at 10 µM
[5] = DRUGMATRIX: Phosphodiesterase PDE4 enzyme inhibition (substrate: [3H]cAMP + cAMP); details: u-937; Not Active = under 50% inhibition at 10 µM
[6] = target: T1, Angiotensin-converting enzyme (Oryctolagus cuniculus, UniProt P12822); format: tissue-based, Lung;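 further: enzymatic inhibition of angiotensin-converting enzyme measured with FAPGG as the substrate; in other assays of this panel Not Active means under 50% inhibition at 10 µM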
T1 sequence (P12822 whole entry): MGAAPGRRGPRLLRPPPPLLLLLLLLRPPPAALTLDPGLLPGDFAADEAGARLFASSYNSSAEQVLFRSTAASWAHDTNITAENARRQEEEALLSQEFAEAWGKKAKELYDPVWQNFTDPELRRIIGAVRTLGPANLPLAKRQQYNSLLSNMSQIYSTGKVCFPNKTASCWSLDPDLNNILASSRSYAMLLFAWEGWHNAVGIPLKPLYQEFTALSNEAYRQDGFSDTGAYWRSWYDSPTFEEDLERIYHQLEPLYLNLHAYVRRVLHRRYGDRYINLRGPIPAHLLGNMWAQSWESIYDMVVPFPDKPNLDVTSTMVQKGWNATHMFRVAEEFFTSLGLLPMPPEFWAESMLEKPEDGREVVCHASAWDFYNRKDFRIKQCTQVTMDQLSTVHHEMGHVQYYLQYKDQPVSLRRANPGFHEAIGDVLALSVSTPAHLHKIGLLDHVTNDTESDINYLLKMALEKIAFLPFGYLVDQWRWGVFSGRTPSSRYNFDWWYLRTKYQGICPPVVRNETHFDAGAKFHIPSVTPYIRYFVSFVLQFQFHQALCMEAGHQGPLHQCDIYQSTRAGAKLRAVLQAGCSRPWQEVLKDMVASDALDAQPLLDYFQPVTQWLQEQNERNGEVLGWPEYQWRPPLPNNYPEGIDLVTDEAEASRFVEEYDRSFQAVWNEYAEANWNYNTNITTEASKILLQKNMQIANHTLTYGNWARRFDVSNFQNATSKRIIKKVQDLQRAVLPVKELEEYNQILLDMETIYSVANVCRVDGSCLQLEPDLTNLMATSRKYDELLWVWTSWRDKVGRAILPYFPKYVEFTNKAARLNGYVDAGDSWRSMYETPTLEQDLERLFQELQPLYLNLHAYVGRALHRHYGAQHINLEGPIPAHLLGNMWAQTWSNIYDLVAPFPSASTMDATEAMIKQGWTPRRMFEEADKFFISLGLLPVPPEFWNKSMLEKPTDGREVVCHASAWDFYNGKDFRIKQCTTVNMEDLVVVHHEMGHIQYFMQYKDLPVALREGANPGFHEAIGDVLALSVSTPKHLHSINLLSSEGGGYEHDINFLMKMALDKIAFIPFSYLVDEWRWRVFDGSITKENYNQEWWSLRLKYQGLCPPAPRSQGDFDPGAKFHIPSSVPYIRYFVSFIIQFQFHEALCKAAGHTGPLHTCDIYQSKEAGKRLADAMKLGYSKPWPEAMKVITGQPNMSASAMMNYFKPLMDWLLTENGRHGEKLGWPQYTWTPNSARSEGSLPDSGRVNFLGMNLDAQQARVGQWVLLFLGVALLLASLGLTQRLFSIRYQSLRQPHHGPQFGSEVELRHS

Adenosine receptor A2a = Adenosine receptor A2a (Homo sapiens, UniProt P29274); assay: DRUGMATRIX: Adenosine A2A radioligand binding (ligand: […]); format: cell membranes, HEK293, Membrane; details: Not Active = under 50% inhibition at 10 µM; for IC50: hek293
Chain of Adenosine receptor A2a (P29274 whole entry): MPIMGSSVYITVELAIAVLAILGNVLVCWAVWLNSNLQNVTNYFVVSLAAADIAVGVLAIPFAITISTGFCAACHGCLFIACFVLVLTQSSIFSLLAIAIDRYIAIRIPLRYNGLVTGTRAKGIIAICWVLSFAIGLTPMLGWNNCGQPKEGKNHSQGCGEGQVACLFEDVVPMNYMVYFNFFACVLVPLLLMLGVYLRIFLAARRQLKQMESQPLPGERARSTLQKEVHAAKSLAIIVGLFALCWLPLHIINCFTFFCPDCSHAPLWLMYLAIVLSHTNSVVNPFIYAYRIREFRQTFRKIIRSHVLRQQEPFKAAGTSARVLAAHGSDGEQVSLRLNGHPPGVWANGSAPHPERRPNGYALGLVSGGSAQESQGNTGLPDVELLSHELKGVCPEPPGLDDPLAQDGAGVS

Chain of Melanocortin receptor 3 (P41968 whole entry): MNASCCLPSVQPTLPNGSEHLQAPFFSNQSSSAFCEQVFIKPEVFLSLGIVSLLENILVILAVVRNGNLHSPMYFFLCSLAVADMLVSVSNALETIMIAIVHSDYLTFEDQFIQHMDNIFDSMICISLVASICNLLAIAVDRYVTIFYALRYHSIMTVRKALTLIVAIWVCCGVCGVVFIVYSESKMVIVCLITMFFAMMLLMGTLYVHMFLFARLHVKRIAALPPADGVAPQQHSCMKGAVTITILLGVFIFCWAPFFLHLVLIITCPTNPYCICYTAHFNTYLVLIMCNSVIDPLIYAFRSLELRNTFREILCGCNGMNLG
Chain of Delta-type opioid receptor (P41143 whole entry): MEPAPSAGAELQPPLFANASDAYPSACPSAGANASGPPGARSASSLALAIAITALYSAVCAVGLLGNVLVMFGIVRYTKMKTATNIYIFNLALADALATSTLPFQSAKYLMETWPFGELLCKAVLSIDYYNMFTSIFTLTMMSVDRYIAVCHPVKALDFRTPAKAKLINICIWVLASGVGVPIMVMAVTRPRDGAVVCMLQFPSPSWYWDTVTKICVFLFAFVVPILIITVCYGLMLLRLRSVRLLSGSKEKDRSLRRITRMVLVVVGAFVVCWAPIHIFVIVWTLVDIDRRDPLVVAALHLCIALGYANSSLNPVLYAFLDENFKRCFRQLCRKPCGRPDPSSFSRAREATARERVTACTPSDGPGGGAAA

Row | Compound | IC50 [1] | Ki [1] | IC50 [2] | Ki [2] | IC50 [3] | Ki [3] | IC50 (Melanocortin receptor 3) | IC50 [4] | IC50 [5] | Ki [5] | IC50 [6] | IC50 (Adenosine receptor A2a) | pIC50 (Adenosine receptor A2a; read-out: IC50) | pKi (Adenosine receptor A2a; read-out: Ki)
1 | COc1ccc2c(c1)c(CC(=O)O)c(C)n2C(=O)c1ccc(Cl)cc1 [INDOMETHACIN] | Not Active | Not Active | Not Active | Not Active | Not Active | Not Active | Not Active | Not Active | Not Active | Not Active | Not Active | Not Active |  | 
2 | CC(C)[C@H]1CC[C@H](C(=O)N[C@H](Cc2ccccc2)C(=O)O)CC1 [NATEGLINIDE] | Not Active | Not Active | Not Active | Not Active | Not Active | Not Active | Not Active | Not Active | Not Active | Not Active | Not Active | Not Active |  | 
3 | CCCC(=O)Nc1ccc(OCC(O)CNC(C)C)c(C(C)=O)c1 (centres undefined) [ACEBUTOLOL] | Not Active | Not Active | Not Active | Not Active | Not Active | Not Active | Not Active | Not Active | Not Active | Not Active | Not Active | Not Active |  | 
4 | C[C@]12CC[C@@H]3c4ccc(OC(=O)c5ccccc5)cc4CC[C@H]3[C@@H]1CC[C@@H]2O [ESTRADIOL BENZOATE] | Not Active | Not Active | Not Active | Not Active | Not Active | Not Active | Not Active | Not Active | Not Active | Not Active | Not Active | Not Active |  | 
5 | CC1(C)O[C@@H]2C[C@H]3[C@@H]4C[C@H](F)C5=CC(=O)C=C[C@]5(C)[C@H]4[C@@H](O)C[C@]3(C)[C@]2(C(=O)CO)O1 [FLUNISOLIDE] | Not Active | Not Active | Not Active | Not Active | Not Active | Not Active | Not Active | Not Active | Not Active | Not Active | Not Active | Not Active |  | 
6 | CC1=C(C(=O)O)N2C(=O)[C@@H](NC(=O)[C@H](N)c3ccccc3)[C@H]2SC1 [CEPHALEXIN ANHYDROUS] | Not Active | Not Active | Not Active | Not Active | Not Active | Not Active | Not Active | Not Active | Not Active | Not Active | Not Active | Not Active |  | 
7 | COC(=O)C1=C(C)NC(C)=C(C(=O)OCC(C)C)C1c1ccccc1[N+](=O)[O-] (centres undefined) [NISOLDIPINE] | Not Active | Not Active | Not Active | Not Active | Not Active | Not Active | Not Active | Not Active | Not Active | Not Active | Not Active |  | 5.39 | 5.64
8 | CC(=O)Nc1ccc(O)cc1 [ACETAMINOPHEN] | Not Active | Not Active | Not Active | Not Active | Not Active | Not Active | Not Active | Not Active | Not Active | Not Active | Not Active | Not Active |  | 
9 | CCc1c2c(nc3ccc(OC(=O)N4CCC(N5CCCCC5)CC4)cc13)-c1cc3c(c(=O)n1C2)COC(=O)[C@]3(O)CC [IRINOTECAN] | Not Active | Not Active | Not Active | Not Active | Not Active | Not Active | Not Active | Not Active | Not Active | Not Active | Not Active | Not Active |  | 
